We go through eight compounds from patent US20100048731A1, “Hydroxylated Long-Chain Resveratrol Derivatives Useful as Neurotrophic Agents” (Centre National de la Recherche Scientifique(CNRS), priority 2006, published 2010).

Where two headings read alike, the source gives them in different places.

The subject of experiment [1] is neural stem cells. The experiment in a line: Neural stem cell proliferation. The format is cell-based, mouse. As to conditions: 10^-6 M; cultured for 5 days. The procedure:
(§1) Neurospheres are obtained from mouse embryo telencephalon cells cultivated in a defined medium containing 20 ng/ml EGF. After dissociation, the spheres proliferate for 3 days in the presence of EGF (20 ng/ml) during the so-called proliferation phase.
1. RFA-12 induces the differentiation of neural stem cells into neurons. […] However, if the neurospheres are treated with RFA-12 at a concentration of 10^−6 M to 10^−8 M, an increase in the number of neurons compared to the control (untreated cells) is observed. At concentrations of 10^−6 M, 10^−7 M and 10^−8 M we can observe a 120%, 90% and 80% increase, respectively, in the neuron population compared to the control fixed at 100%. […] In order to see whether RFA and its analogues also act on neural stem cell proliferation, these cells are dissociated and then cultured in the presence of RFA (10^−6 M and 10^−8 M) for 5 days, and then the number of living cells and their size and morphology are recorded.

The subject of experiment [2] is neural stem cells. Put plainly: Differentiation of neural stem cells (neurospheres) into neurons, by immunocytochemistry. The format is cell-based, mouse. The conditions noted are these: for increase in the neuron population compared to the control fixed at 100%: 3 days of differentiation. The procedure:
as §1
The spheres are then collected and deposited on an poly-ornithine support in a defined medium in the presence of 2 ng/ml EGF. Under these conditions, the spheres adhere to the support and differentiate. The compounds to be tested, RFA-12 and its analogues, dissolved beforehand in ethanol, are added immediately after the deposit of the neurospheres at various concentrations ranging from 10^−5 M to 10^−9 M. The control cultures are treated with a negative control (ethanol) and a positive control (retinoic acid).
To screen our compounds we performed a double labeling, namely for neurons and for astrocytes.
For the detection of astrocytes, a secondary antibody coupled to a fluorochrome derived from rhodamine, Alexa488 (green), was used.
In order to be able to quantify the results, the nuclei are marked by an intercalating agent, TO-PRO (blue). The cultures are then observed under a confocal microscope.

Experiment [3] has as its system microglial cell cultures treated with LPS. The experiment in a line: Nitrite release (Griess method) in LPS-activated microglial cell cultures. The experiment is classed as cell-based. The conditions noted are these: LPS 0.01 μg/ml; for decrease in nitrite production compared to the control values: three independent experiments, concentration not stated (5×10^-6, 10^-6 and 10^-7 M tested). The text has this:
(§2) The experiments carried out thus relate to the capacity of RFA molecules (MRFA and DMRFA) to inhibit, in activated microglia, the release of nitrites and TNF-α.
The activity of NO-synthase type II (NOS II) represents a microglial activity parameter often analyzed in the literature. This enzyme is responsible for the synthesis of nitric oxide radicals under conditions of inflammatory activation. Microglia at rest only express levels at the immunoblotting detection limit. Activation of 24 to 48 hours leads to a strong increase in this expression. The product of this enzyme, NO, quickly breaks down in culture to form nitrites.
In the experiments performed, NO2^− concentrations were measured after 24 hours and 48 hours of activation in microglial cell cultures treated with 0.01 μg/ml of LPS, in the presence of products RFA-12, MRFA-10, MRFA-12, MRFA-14, MRFA-16, MRFA-18, DMRFA-10, DMRFA-12, DMRFA-14, DMRFA-16, DMRFA-18, M-resveratrol, DM-resveratrol and resveratrol at concentrations of 5×10^−6 M, 10^−6 M and 10^−7 M.
(Nitrite, measured by Griess reagent, commonly stands in for NO production.)

Experiment [4] shares this test system. Put plainly: TNF-α release (ELISA) in LPS-activated microglial cell cultures. The format is cell-based. As to conditions: read-out: decrease in TNF-α production compared to control values. The procedure:
as §2
The expression of TNF-α represents a microglial activation parameter often analyzed in the literature. […] A 24-hour activation by LPS leads to a strong increase in expression, detectable by ELISA.
In the experiments performed, TNF-α concentrations were measured after 24 hours of activation in microglial cell cultures treated with 0.01 μg/ml of LPS in the presence of MRFA-10, MRFA-12, MRFA-14, MRFA-16, MRFA-18, DMRFA-10, DMRFA-12, DMRFA-14, DMRFA-16, DMRFA-18, M-resveratrol, DM-resveratrol and resveratrol at concentrations of 5×10^−6 M, 10^−6 M and 10^−7 M.

The nature of experiment [5]: DPPH test (antioxidant capacity). The conditions noted are these: after 3 hours of incubation (time stated for the hybrid molecules); read-out: IC50 (concentration at which 50% of the radicals are reduced), DPPH test. The format is physicochemical. The procedure:
The DPPH [(2,2′-di(4-tert-octylphenyl)1-picrylhydrazyl] test was used to determine the antioxidant capacity of our compounds [9]. DPPH is a stabilized radical that absorbs at 517 nm (violet color). When it is placed in the presence of an antioxidant molecule, the latter will react with the radical. Thus, a decrease in absorbance can be observed. Antioxidant capacity thus results in a decrease in absorbance at 517 nm.
a) Implementation of the DPPH Test
On a 96-well ELISA plate, add: • 100 μl of the various solutions at the following concentrations: 10 mM, 5 mM, 2.5 mM, 1 mM, 0.5 mM, 0.1 mM, 0.01 mM and 0.001 mM; • 100 μl of a 400 μM solution of DPPH in ethanol.
After incubating for 45 minutes, 2 hours and 3 hours, the result is given by measuring optical density at […] using a spectrophotometer.
The result is expressed as IC50, which is the concentration at which 50% of the radicals are reduced by the antioxidant molecule.
The inventors tested resveratrol, as a positive control, as well as RFA-10, RFA-12 and RFA-16.

The nature of experiment [6]: ABTS test (antioxidant capacity, hydroxyl radicals from the Fenton reaction). The experiment is classed as physicochemical. As to conditions: after 2 hours of incubation. The text has this: In light of the results obtained with the DPPH test, the use of the ABTS ([2,2′-azino-bis-(3-ethylbenzthiazoline-6-sulfonic acid)]) test was considered, [11], [12]. The ABTS test is more sensitive insofar as it uses less encumbered hydroxyl radicals.
The ABTS molecule reacts with the hydroxyl (OH) radicals generated in the medium by the Fenton reaction to form a cation radical, ABTS^+ (green color), which is absorbent at 405 nm. Thus, when it is placed in the presence of an antioxidant molecule, one capable of reducing hydroxyl radicals, a reduction in absorbance at 405 nm can be observed.
On a 96-well ELISA plate, add: • 180 μl of a 50/50 water/ethanol mixture; • 30 μl of a 1 mM aqueous ABTS solution; • 30 μl of a 1 mM aqueous FeSO4 solution; • 30 μl of the product to be tested at the following concentrations: 10 mM, 5 mM, 2.5 mM, 1 mM, 0.5 mM, 0.1 mM, 0.01 mM and 0.001 mM; • 30 μl of a 100 mM aqueous H2O2 solution.
After incubating for 45 minutes, 1 hour and 2 hours, the result is given by measuring optical density at 405 nm using a spectrophotometer.
In order to maximally reduce solubility problems, RFA-10 was tested. Resveratrol was again used as a positive control.

[7] abbreviates: LPS 0.01 μg/ml, 24 hours of activation, compound at 5×10^-6 M.

As for `OCCCCCCCCCCCCc1c(O)cc(/C=C/c2ccc(O)cc2)cc1O` [RFA-12], in the experiment on neural stem cells [1], the “effect on neural stem cell proliferation” value is listed as “inhibits the proliferation of neural stem cells”. Moreover, the “differentiation of neural stem cells, result in words” value is “does not induce differentiation due to toxicity” in the experiment with neural stem cells [2] (10^-5 M) and “only weak activity” in the experiment on neural stem cells [2] (10^-9 M). In addition, the “increase in the neuron population compared to the control fixed at 100%” value in the experiment on neural stem cells [2] (10^-6 M) was found to be 120%; in the experiment with neural stem cells [2] (10^-7 M), 90%; with neural stem cells [2] (10^-8 M) it was 80%. The “decrease in nitrite levels” value in experiment [3] (compound at 5×10^-6 M) turned out to be 50%. The inhibition at 5 µM in experiment [4] (setting [7]) came out at 40%.

With `COc1ccc(/C=C/c2cc(OC)c(CCCCCCCCCCO)c(OC)c2)cc1` [MRFA-10], the “decrease in nitrite production compared to the control values” (“decrease in nitrite production” below) in experiment [3] was 20%. Further, the inhibition at 5 µM in experiment [4] (setting [7]) lay within 20 to 40%.

As to `COc1ccc(/C=C/c2cc(OC)c(CCCCCCCCCCCCCCO)c(OC)c2)cc1` [MRFA-14, (E)-14-(4-(4-methoxystyryl)-2,6-dimethoxyphenyl)tetradecan-1-ol], the inhibition at 5 µM in experiment [4] (setting [7]) lay within 20 to 40%.

`Oc1ccc(/C=C/c2cc(O)cc(O)c2)cc1` [resveratrol]: the IC50 in experiment [5] was determined as 10 µM; in experiment [6], 30 µM. Also, in experiment [3], the “decrease in nitrite production” value came out at 20%. Besides, in experiment [4] (setting [7]), the inhibition at 5 µM came out at 30%.

Take `COc1ccc(/C=C/c2cc(OC)c(CCCCCCCCCCCCO)c(OC)c2)cc1` [MRFA-12]: the inhibition at 5 µM in experiment [4] (setting [7]) lay in the range of 20 to 40%.

On to `COc1ccc(/C=C/c2cc(OC)c(CCCCCCCCCCCCO)c(OC)c2)cc1OC` [DMRFA-12], for which, in experiment [4] (setting [7]), the inhibition at 5 µM worked out at 40%.

`COc1ccc(/C=C/c2cc(OC)c(CCCCCCCCCCO)c(OC)c2)cc1OC` [DMRFA-10]: the “decrease in nitrite production” value in experiment [3] amounted to 20%. In addition, in experiment [4] (setting [7]), the inhibition at 5 µM worked out at 40%.

With `COc1ccc(/C=C/c2cc(OC)cc(OC)c2)cc1` [M-resveratrol, reference compound], the inhibition at 5 µM in experiment [4] (24 h) was 20%.
